Columns and labels:
[1] = tested on: antibodies in sera from SARS patients (sera 1a, 1b, 2, 6, 37, 62, London, SARS-yellow, SARS-green); format: binding, human; set-up: Binding of serum 6 to linear peptides of protein X1 of SARS-CoV Urbani / Binding of serum 37 to linear peptides of protein X1 of SARS-CoV Urbani / Binding of serum 6 to looped/cyclic peptide (PEPSCAN-ELISA) / Binding of serum 37 to looped/cyclic peptide (PEPSCAN-ELISA) / Binding of serum 37 to looped/cyclic peptides of protein X1 of SARS-CoV Urbani / Binding of serum 6 to linear peptides of protein X2 / Binding of serum 37 to linear peptides of protein X2 / Binding of serum 37 to looped/cyclic peptides of protein X2 of SARS-CoV Urbani / Binding of serum 6 to linear peptides of protein M of SARS-CoV Urbani / Binding of serum 37 to linear peptides of protein M of SARS-CoV Urbani / Binding of serum 6 to looped/cyclic peptides of protein M of SARS-CoV Urbani / Binding of serum 37 to looped/cyclic peptides of protein M of SARS-CoV Urbani / Binding of serum 6 to linear peptides of protein X3 of SARS-CoV Urbani / Binding of serum 37 to linear peptides of protein X3 of SARS-CoV Urbani / Binding of serum 37 to looped/cyclic peptides of protein X3 of SARS-CoV Urbani / Binding of serum 6 to linear peptides of protein X4 of SARS-CoV Urbani / Binding of serum 37 to linear peptides of protein X4 of SARS-CoV Urbani / Binding of serum 37 to looped/cyclic peptides of protein X4 of SARS-CoV Urbani / Binding of serum 6 to linear peptides of protein X5 of SARS-CoV Urbani / Binding of serum 37 to linear peptides of protein X5 of SARS-CoV Urbani / Binding of serum 37 to looped/cyclic peptides of protein X5 of SARS-CoV Urbani / Binding of serum 6 to linear peptides of protein N of SARS-CoV Urbani / Binding of serum 37 to linear peptides of protein N of SARS-CoV Urbani / Binding of serum 6 to linear peptide (PEPSCAN-ELISA) / Binding of serum 1a to looped/cyclic peptides of protein N of SARS-CoV Urbani / Binding of serum 1b to looped/cyclic peptides of protein N of SARS-CoV Urbani / Binding of serum 2 to looped/cyclic peptides of protein N of SARS-CoV Urbani / Binding of serum 6 to looped/cyclic peptides of protein N of SARS-CoV Urbani / Binding of serum 37 to looped/cyclic peptides of protein N of SARS-CoV Urbani / Binding of serum 62 to looped/cyclic peptides of protein N of SARS-CoV Urbani / Binding of serum London to looped/cyclic peptides of protein N of SARS-CoV Urbani / Binding of serum SARS-green to looped/cyclic peptides of protein N of SARS-CoV Urbani: unit not given here
[2] = tested on: control sera (pooled serum of ten healthy LUMC hospital workers; commercial negative donor pooled serum from the Dutch bloodbank); format: binding, human; set-up: Binding of Control serum LUMC to linear peptides / Binding of Control serum Blood-bank to linear peptides / Binding of Control serum LUMC to looped peptides / Binding of Control Serum Blood-Bank to Looped peptides / Binding of Control serum LUMC to linear peptides of the protein M of SARS-CoV Urbani / Binding of Control serum Blood-bank to linear peptides of the protein M of SARS-CoV Urbani / Binding of Control serum LUMC to looped peptides of the protein M of SARS-CoV Urbani / Binding of Control Serum Blood-Bank to Looped peptides of the protein M of SARS-CoV Urbani: unit not given here
[3] = tested on: rabbit serum obtained by immunizing a rabbit with the SARS-CoV strain Frankfurt 1; format: binding; set-up: Binding of a rabbit serum to linear peptides / Binding of a rabbit serum to looped peptides / Rabbit serum linear peptides / Rabbit serum looped peptides / Binding of a rabbit serum to linear peptides of protein N of SARS-CoV Urbani (Rabbit serum linear peptides) / Binding of a rabbit serum to looped/cyclic peptides of protein N of SARS-CoV Urbani (Rabbit serum looped peptides): unit not given here
[4] = tested on: recombinant human anti-SARS-CoV antibody 03-018; format: binding; set-up: Binding of antibody 03-018 to linear peptides of the N protein of SARS-CoV Urbani / Binding of antibody 03-018 to looped/cyclic peptides of the N protein of SARS-CoV Urbani: unit not given here

Sequence	Binding of serum 1a to linear peptides of protein N of SARS-CoV Urbani [1]	Binding of serum 1a to looped/cyclic peptides of protein N of SARS-CoV Urbani [1]	Binding of serum 1b to linear peptides of protein N of SARS-CoV Urbani [1]	Binding of serum 1b to looped/cyclic peptides of protein N of SARS-CoV Urbani [1]	Binding of serum 2 to linear peptides of protein N of SARS-CoV Urbani [1]	Binding of serum 2 to looped/cyclic peptides of protein N of SARS-CoV Urbani [1]	Binding of serum 6 to linear peptides of protein N of SARS-CoV Urbani [1]	Binding of serum 6 to looped/cyclic peptides of protein N of SARS-CoV Urbani [1]	Binding of serum 37 to linear peptides of protein N of SARS-CoV Urbani [1]	Binding of serum 37 to looped/cyclic peptides of protein N of SARS-CoV Urbani [1]	Binding of serum 62 to linear peptides of protein N of SARS-CoV Urbani [1]	Binding of serum 62 to looped/cyclic peptides of protein N of SARS-CoV Urbani [1]	Binding of serum London to linear peptides of protein N of SARS-CoV Urbani [1]	Binding of serum London to looped/cyclic peptides of protein N of SARS-CoV Urbani [1]	Binding of serum SARS-green to linear peptides of protein N of SARS-CoV Urbani [1]	Binding of serum SARS-green to looped/cyclic peptides of protein N of SARS-CoV Urbani [1]	Binding of serum SARS-yellow to linear peptides of protein N of SARS-CoV Urbani [1]	Binding of serum SARS-yellow to looped/cyclic peptides of protein N of SARS-CoV Urbani [1]	Binding of Control Serum Blood-Bank to Looped peptides [2]	Binding of Control serum Blood-bank to linear peptides [2]	other results
HIGTRNPNNNAATVL	0.3	0.6	0.2	0.5	0.4	0.9	0.2	0.6	0.9	1.2	0.8	1.3	0.5	0.7	0.5	0.9	0.7	0.8	1.2	0.9	Binding of Control serum LUMC to linear peptides [2]: 0.9; Binding of Control serum LUMC to looped peptides [2]: 1.2; Binding of a rabbit serum to linear peptides of protein N of SARS-CoV Urbani (Rabbit serum linear peptides) [3]: 0.1; Binding of a rabbit serum to looped/cyclic peptides of protein N of SARS-CoV Urbani (Rabbit serum looped peptides) [3]: 0.7; Binding of antibody 03-018 to linear peptides of the N protein of SARS-CoV Urbani [4]: 0.1; Binding of antibody 03-018 to looped/cyclic peptides of the N protein of SARS-CoV Urbani [4]: 0.3
ITFGGPTDSTDNNQN	0.2	0.3	0.1	0.2	0.1	0.3	0.1	0.2	0.7	0.6	0.6	0.5	0.5	0.4	0.3	0.7	0.4	0.3	0.7	0.5	Binding of Control serum LUMC to linear peptides [2]: 0.6; Binding of Control serum LUMC to looped peptides [2]: 0.7; Binding of a rabbit serum to linear peptides of protein N of SARS-CoV Urbani (Rabbit serum linear peptides) [3]: 0.1; Binding of a rabbit serum to looped/cyclic peptides of protein N of SARS-CoV Urbani (Rabbit serum looped peptides) [3]: 0.3; Recognition of the peptide by antibody 03-018 [4]: recognized
KDHIGTRNPNNNAAT	0.3	0.4	0.2	0.3	0.4	0.5	0.3	0.4	0.9	0.5	0.8	0.4	0.5	0.4	0.5	0.1	0.8	0.3	0.6	0.9	Binding of Control serum LUMC to linear peptides [2]: 0.8; Binding of Control serum LUMC to looped peptides [2]: 0.6; Binding of a rabbit serum to linear peptides of protein N of SARS-CoV Urbani (Rabbit serum linear peptides) [3]: 0.1; Binding of a rabbit serum to looped/cyclic peptides of protein N of SARS-CoV Urbani (Rabbit serum looped peptides) [3]: 0.2; Binding of antibody 03-018 to linear peptides of the N protein of SARS-CoV Urbani [4]: 0.1; Binding of antibody 03-018 to looped/cyclic peptides of the N protein of SARS-CoV Urbani [4]: 0.2

From patent publication US20070128217A1 (priority 2003, published 2007)
